Like-named read-outs stand apart in the source and are kept apart here.
How the values were obtained:
recombinant human AChE = target: T1, recombinant human AChE (Homo sapiens, UniProt P22303); test: Reversible inhibition of AChE, Ellman method; assay type: biochemical; settings: 0.1 M phosphate buffer pH 7.4, 25 °C, substrate ATCh; maximal tested concentration 100 µM for the trans derivatives (DMSO inhibits AChE); read-out: IC50 AChE (IC50 ± SE)
T1 construct: made in house

[1] = target: T2, BChE isolated from human plasma (Homo sapiens, UniProt P06276); test: Reversible inhibition of BChE, Ellman method; assay type: biochemical; settings: for IC50: 0.1 M phosphate buffer pH 7.4, 25 °C, substrate ATCh, at least three experiments
T2 construct: BChE isolated from human plasma; from tissue; host or cells: human plasma
Method: Inhibition potency of novel compounds was evaluated for recombinant human AChE (prepared as described earlier[25] and kindly donated by Prof Palmer Taylor, Skaggs School of Pharmacy and Pharmaceutical Sciences, University of California at San Diego, La Jolla, USA) and BChE isolated from human plasma (kindly donated by late Dr Douglas Cerasoli and Dr David Lenz, […], Edgewood, MD). The inhibition mixture contained a 0.1 M phosphate buffer, pH 7.4, enzyme, tested compound, and reagent, 5,5'-dithiobis(2-nitrobenzoic acid) (DTNB, 0.3 mM; Sigma Chemical Co., St. Louis, MO, USA). Enzyme activity was measured upon addition of substrate, acetylthiocholine (ATCh, 0.2 or 0.1 mM; Sigma Chemical Co., St. Louis, MO, USA) by the Ellman method[26] at 25 °C and 412 nm, on a Tecan Infinite M200PRO plate reader (Tecan Austria, GmbH, Salzburg, Austria). Due to the low solubility, a stock solution of the tested compounds was prepared in DMSO or methanol (Kemika, Zagreb, Croatia), and a corresponding solvent was in controls as well. The IC50 values were determined from at least three experiments by a nonlinear fit of the compound concentration logarithm values vs. % of enzyme activity using Prism6 software (GraphPad Prism 6 Software, San Diego, USA).

[2] = read-out: IC50 BChE (IC50 ± SE)

T2 sequence (P06276 29-602): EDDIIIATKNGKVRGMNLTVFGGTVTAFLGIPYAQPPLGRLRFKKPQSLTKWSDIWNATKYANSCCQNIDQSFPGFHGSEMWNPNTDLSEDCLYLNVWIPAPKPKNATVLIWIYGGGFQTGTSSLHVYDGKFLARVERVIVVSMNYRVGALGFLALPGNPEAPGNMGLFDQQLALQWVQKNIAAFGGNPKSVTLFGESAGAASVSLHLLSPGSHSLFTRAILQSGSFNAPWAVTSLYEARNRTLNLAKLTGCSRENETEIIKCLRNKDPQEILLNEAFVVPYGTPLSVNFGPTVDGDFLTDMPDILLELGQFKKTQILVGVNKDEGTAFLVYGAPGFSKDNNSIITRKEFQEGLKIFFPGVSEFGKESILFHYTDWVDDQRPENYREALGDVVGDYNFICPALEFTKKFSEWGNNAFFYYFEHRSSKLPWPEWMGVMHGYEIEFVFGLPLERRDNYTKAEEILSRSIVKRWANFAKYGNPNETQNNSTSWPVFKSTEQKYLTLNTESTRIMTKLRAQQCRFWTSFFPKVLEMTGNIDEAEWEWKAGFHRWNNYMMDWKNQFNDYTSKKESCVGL
T1 sequence (P22303 32-614): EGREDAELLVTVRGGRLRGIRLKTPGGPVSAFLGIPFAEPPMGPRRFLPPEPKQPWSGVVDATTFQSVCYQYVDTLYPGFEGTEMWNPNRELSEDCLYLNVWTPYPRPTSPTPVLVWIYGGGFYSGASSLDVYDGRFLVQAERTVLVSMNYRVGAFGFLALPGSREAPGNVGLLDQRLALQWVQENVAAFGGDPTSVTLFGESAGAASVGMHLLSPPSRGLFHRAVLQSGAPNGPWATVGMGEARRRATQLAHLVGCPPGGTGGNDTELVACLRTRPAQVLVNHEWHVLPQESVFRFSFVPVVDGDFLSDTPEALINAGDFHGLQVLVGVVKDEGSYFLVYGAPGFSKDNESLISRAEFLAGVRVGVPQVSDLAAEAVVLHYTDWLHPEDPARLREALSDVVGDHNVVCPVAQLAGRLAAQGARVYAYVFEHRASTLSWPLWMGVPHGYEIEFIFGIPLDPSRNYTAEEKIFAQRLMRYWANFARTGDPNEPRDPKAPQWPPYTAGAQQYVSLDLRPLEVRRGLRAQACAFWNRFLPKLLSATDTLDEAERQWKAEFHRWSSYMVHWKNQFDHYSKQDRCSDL

Structure (SMILES) | IC50 (recombinant human AChE) | IC50 [1, 2] | fold higher potency for BChE than counterpart trans-6 ([1]; ratio of IC50 vs trans-6) | IC50 ([1]; IC50 BChE (IC50 ± SE)) | times more potent inhibitor of BChE than trans-12, trans-10 and trans-8 ([1]; ratio of IC50 vs trans-12, trans-10, trans-8) | fold lower BChE binding affinity than the most potent inhibitor trans-12 ([1]; ratio of IC50 vs trans-12)
Fc1ccc(CNc2ccc(/C=C/c3cnco3)cc2)cc1 [trans-6, (E)-N-(4-fluorobenzyl)-4–(2-(oxazol-5-yl)vinyl)aniline] | > 100 µM | 80 ± 10 µM | – | – | – | –
Cc1ccc(CNc2ccc(/C=C/c3cnco3)cc2)cc1 [trans-3, (E)-N-(4-methylbenzyl)-4–(2-(oxazol-5-yl)vinyl)aniline] | > 100 µM | 120 ± 19 µM | – | – | – | –
Clc1ccc(CNc2ccc(/C=C/c3cnco3)cc2)cc1 [trans-5, (E)-N-(4-chlorobenzyl)-4–(2-(oxazol-5-yl)vinyl)aniline] | > 100 µM | 87 ± 12 µM | – | – | – | –
Nc1ccc2ccc3ocnc3c2c1 [Compound 23, Naphtho[1,2-d]oxazol-8-amine] | 120 ± 46 µM | 1000 ± 650 µM | – | – | – | –
COc1ccc(CNc2ccc(/C=C/c3cnco3)cc2)cc1 [trans-4, (E)-N-(4-methoxybenzyl)-4–(2-(oxazol-5-yl)vinyl)aniline] | > 100 µM | 110 ± 15 µM | – | – | – | –
COc1cccc(CNc2ccc(/C=C/c3cnco3)cc2)c1 [trans-8, (E)-N-(3-methoxybenzyl)-4–(2-(oksazol-5-yl)vinyl)aniline] | > 100 µM | 36 ± 4.4 µM | – | – | – | –
Fc1cccc(CNc2ccc(/C=C/c3cnco3)cc2)c1 [trans-10, (E)-N-(3-fluorobenzyl)-4–(2-(oxazol-5-yl)vinyl)aniline] | > 100 µM | 32 ± 5.2 µM | – | – | – | –
Nc1ccc(/C=C\c2cnco2)cc1 [cis-22, (Z)-4–(2-(oxazol-5-yl)vinyl)aniline] | 190 ± 100 µM | 110 ± 58 µM | – | – | – | –
c1ccc(CNc2ccc3ccc4ocnc4c3c2)cc1 [Compound 19, N-benzylnaphtho[1,2-d]oxazol-8-amine] | 68 ± 25 µM | 140 ± 24 µM | – | – | – | –
Fc1ccc(CNc2ccc3ccc4ocnc4c3c2)cc1 [Compound 20, N-(4-fluorobenzyl)naphtho[1,2-d]oxazol-8-amine] | 45 ± 17 µM | 12 ± 1.3 µM | about 8 fold | – | – | –
CCN(CC)C(C)CN1c2ccccc2Sc2ccccc21 (centres unmarked) [Ethopropazine, reference compound] | – | – | – | 0.046 ± 0.0037 µM | – | –
C(=C/c1cnco1)/c1ccc(NCc2cccs2)cc1 [cis-18, (Z)-4–(2-(oxazol-5-yl)vinyl)-N-(thiophen-2-ylmethyl)aniline] | 160 ± 100 µM | 5.7 ± 0.8 µM | – | – | about 5 times | –
COc1ccccc1CNc1ccc(/C=C/c2cnco2)cc1 [trans-12, (E)-N-(2-methoxybenzyl)-4–(2-(oxazol-5-yl)vinyl)aniline] | > 100 µM | 28 ± 5.2 µM | – | – | – | –
Cc1ccccc1CNc1ccc(/C=C/c2cnco2)cc1 [trans-11, (E)-N-(2-methylbenzyl)-4–(2-(oxazol-5-yl)vinyl)aniline] | > 100 µM | 160 ± 35 µM | – | – | – | 5.5 fold
c1csc(CNc2ccc3ccc4ocnc4c3c2)c1 [Compound 21, N-(thiophen-2-ylmethyl)naphtho[1,2-d]oxazol-8-amine] | 51 ± 20 µM | 35 ± 7.1 µM | – | – | – | –
C(=C\c1cnco1)/c1ccc(NCc2ccco2)cc1 [trans-17, (E)-N-(furan-2-ylmethyl)-4–(2-(oxazol-5-yl)vinyl)aniline] | > 100 µM | 65 ± 10 µM | – | – | – | –
Cc1cccc(CNc2ccc(/C=C/c3cnco3)cc2)c1 [trans-7, (E)-N-(3-methylbenzyl)-4–(2-(oxazol-5-yl)vinyl)aniline] | > 100 µM | 130 ± 26 µM | – | – | – | –
C(=C\c1cnco1)/c1ccc(NCc2ccccc2)cc1 [trans-2, (E)-N-benzyl-4–(2-(oxazol-5-yl)vinyl)aniline] | > 100 µM | 120 ± 22 µM | – | – | – | –

Source: article PMC6968547, “Design, synthesis and cholinesterase inhibitory properties of new oxazole benzylamine derivatives” (Journal of Enzyme Inhibition and Medicinal Chemistry, 2020)
